{"source": "patent US20240350597A1", "about": "“PROTEASE INHIBITORS” (University College Dublin, priority 2023, published 2024)", "key": {"pancreatic elastase": {"tested_on": "pancreatic elastase", "test": "Protease inhibition assay, elastase", "assay_type": "biochemical", "conditions": "10 min preincubation, A1AT compared with B3-TMP", "procedure": "(§1) Proteases were incubated with a 1:5 molar excess of serpin and residual activity was determined by cleavage of fluorescent substrates. All assays were carried out at room temperature in 96-well plates in a total volume of 100 μL. Residual proteolytic activity was measured using a SpectraMax M3 Microplate Reader (Molecular Devices, Inc), using the appropriate buffer and synthetic fluorogenic peptide substrate: Cathepsin L, Z-FR-AMC (10 μM), 50 mM Na-Acetate, 100 mM NaCl, 1 mM EDTA, pH 5.5; Chymotrypsin, Z-AAPF-AMC (5 μM), PBS, 1 mg/ml BSA; Elastase, Met-O-Suc-AAPV-AMC (10 μM), 50 mM Tris, 120 mM NaCl, pH 8.0, 1 mg/ml BSA; Furin, Boc-RVRR-AMC (50 μM) 20 mM Tris, 1 mM CaCl2), 0.5% Brij-35, pH 9; TMPRSS2, Boc-QAR-AMC (80 μM), PBS; Trypsin, Z-FR-AMC (10 μM), 50 mM Tris, 0.2 mM DTT, 1 mg/ml BSA. The excitation and emission wavelengths used were 380 nm and 460 nm respectively. All assays were performed in triplicate.\n(§2) As an indication of target protease selectivity, both serpins were tested with mammalian trypsin, chymotrypsin and elastase, in addition to TMPRSS2. A short preincubation time of 10 minutes prior to addition of fluorogenic substrate was used and residual activity determined."}, "[1]": {"tested_on": "SARS-CoV-2 Spike pseudoparticles", "assay_type": "cell-based", "conditions": "12.5 μM, A549-ACE2-TMPRSS2 cells"}, "mammalian trypsin": {"tested_on": "mammalian trypsin", "test": "Protease inhibition assay, trypsin", "assay_type": "biochemical", "conditions": "10 min preincubation, A1AT compared with B3-TMP", "procedure": "as §1, §2"}, "TMPRSS2 [2]": {"target": "T1, TMPRSS2 (Homo sapiens, UniProt O15393)", "T1 construct": "purchased Cusabio Technology", "T1 sequence (O15393 whole entry)": "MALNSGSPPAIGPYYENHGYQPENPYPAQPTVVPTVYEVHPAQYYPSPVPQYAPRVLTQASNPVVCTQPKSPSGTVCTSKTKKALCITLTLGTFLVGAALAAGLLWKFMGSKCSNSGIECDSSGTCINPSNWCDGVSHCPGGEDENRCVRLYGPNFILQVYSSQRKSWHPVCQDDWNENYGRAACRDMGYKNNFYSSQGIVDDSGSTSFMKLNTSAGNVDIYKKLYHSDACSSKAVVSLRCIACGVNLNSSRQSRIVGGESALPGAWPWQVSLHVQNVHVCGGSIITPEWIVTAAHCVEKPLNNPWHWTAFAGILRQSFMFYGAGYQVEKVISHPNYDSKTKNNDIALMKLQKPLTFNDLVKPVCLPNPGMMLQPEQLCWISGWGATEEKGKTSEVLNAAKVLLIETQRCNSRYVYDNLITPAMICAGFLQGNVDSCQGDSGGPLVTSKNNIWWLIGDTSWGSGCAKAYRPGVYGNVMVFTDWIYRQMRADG", "assay_type": "biochemical", "conditions": "5:1 serpin:protease ratio, 10 min incubation, substrate Boc-QAR-AMC"}, "chymotrypsin": {"tested_on": "chymotrypsin", "test": "Protease inhibition assay, chymotrypsin", "assay_type": "biochemical", "conditions": "10 min preincubation, A1AT compared with B3-TMP", "procedure": "as §1, §2"}, "TMPRSS2 [3]": {"target": "T1, TMPRSS2", "test": "Kinetic analysis of TMPRSS2 inhibition under pseudo first-order conditions", "assay_type": "biochemical", "conditions": "room temperature, TMPRSS2 0.1 μM", "procedure": "For kinetic analysis of TMPRSS2 inhibition, second order inhibition rate constants were determined under pseudo first-order conditions using a range of serpin concentrations, and with TMPRSS2 buffer and substrate detailed above. Reactions were performed at room temperature and residual activity was determined at intervals over a 10 min incubation with a molar excess of serpin over protease. Concentration ranges were 0.12 to 0.44 μM for B3-TMP and 1.0 to 4 μM for A1AT. The apparent first order rate constant kobs for each concentration was calculated from the slope of the natural log of residual activity over time (−kobs). These values were plotted against inhibitor concentration and linear regression analysis of this plot gave the second order inhibition rate constant k2, with standard error determined."}}, "data": [{"substance": "alpha-1-antitrypsin [A1AT]", "values": [{"measurement": "pancreatic elastase inhibition (in words)", "setting": "pancreatic elastase", "result": "more effective inhibitor"}, {"measurement": "inhibition of pseudoparticle entry", "setting": "[1]", "result": 40, "unit": "%"}, {"measurement": "trypsin inhibition (in words)", "setting": "mammalian trypsin", "result": "more effective inhibitor"}, {"measurement": "inhibition of TMPRSS2", "setting": "TMPRSS2 [2]", "result": 15, "unit": "%"}, {"measurement": "chymotrypsin inhibition (in words)", "setting": "chymotrypsin", "result": "more effective inhibitor"}, {"measurement": "second order inhibition rate constant k2 of TMPRSS2 inhibition", "setting": "TMPRSS2 [3]", "result": "(4.8±0.55)×10^2 M^−1 s^−1"}]}]}
